The test system of data set [1] is BSR.LNL.tdTomato cells. Put plainly: Delivery efficiency of aurein 1.2 in trans with +36 GFP-Cre (Cre recombination, flow cytometry). It counts as cell-based, hamster. The conditions noted are these: 125-500 nM +36 GFP-Cre mixed with aurein 1.2 (1-100 μM) or aurein 1.2-+36 GFP (125-500 nM).
Method: Determining the delivery efficiency of aurein 1.2 in trans with +36 GFP-Cre. 125 nM, 250 nM, or 500 nM+36 GFP-Cre was mixed with either aurein 1.2-+36 GFP (125 nM, 250 nM, 500 nM) or with aurein 1.2 (1 μM, 10 μM, 100 μM), then assayed for Cre-mediated recombination as measured by tdTomato signal during flow cytometry. […] The expressed fusion aurein 1.2-+36 GFP-Cre protein at 125 nM, 250 nM, or 500 nM was used as the positive control.
To test this possibility, we assayed functional Cre recombinase delivery of +36 GFP-Cre mixed with aurein 1.2, or mixed with aurein 1.2-+36 GFP fusion protein lacking Cre at various concentrations (FIG. 9).
The subject of data set [2] is cochlear hair cells and supporting cells of Cre reporter transgenic mice. Put plainly: In vivo protein delivery of Cre recombinase into mouse neonatal cochleas. On the procedure: FIGS. 6A-6C. In vivo protein delivery of Cre recombinase into mouse neonatal cochleas. 0.4 μL of 50 μM+36 GFP-Cre or aurein 1.2-+36 GFP-Cre were injected into the scala media. (FIG. 6A) Five days after injection, cochlea were harvested. Inner hair cells (IHC), outer hair cells (OHC) and supporting cells in the sensory epithelium (SE) were imaged for the presence of tdTomato, which is only expressed following Cre-mediated recombination. Hair cells were labeled with antibodies against the hair-cell marker Myo7a. (FIG. 6B) To evaluate cytotoxicity, the number of outer hair cells and inner hair cells were measured by counting DAPI-stained cells. (FIG. 6C) The percentage of tdTomato positive cells, reflecting successful delivery of functional Cre recombinase, was determined by fluorescence imaging.
To evaluate the ability of aurein 1.2 to increase the efficacy of cationic protein delivery in vivo, proteins were delivered to the inner ear of Cre reporter transgenic mice that express tdTomato upon Cre-mediated recombination. This animal model was chosen due to its confined injection volume, the presence of well-characterized cell types, and the existence of genetic deafness models that would facilitate future studies of protein delivery to treat hearing loss.
Anesthetized postnatal day 2 (P2) mice were injected with 0.4 μL of 50 μM+36 GFP-Cre or aurein 1.2-+36 GFP-Cre solutions in the scala media to access the cochlear cells. Five days after injection, the cochleas were harvested for immunolabeling of inner ear cell markers and imaging for tdTomato florescence (FIG. 6A). Both the hair cells (Myo7a+) and supporting cells (Myo7a−) were evaluated for td Tomato signal. The total number of hair cells and supporting cells (by DAPI labeling) in the sensory epithelium (SE) was used to determine the relative toxicity of aurein 1.2-+36 GFP-Cre to the baseline treatment of +36 GFP-Cre ([…]).
P1-2 Gt(ROSA)26Sor^tm14(CAG-tdTomato)Hze mice were used for aurein 1.2-+36-GFP-Cre and +36-GFP-Cre injection. The Rosa26-tdTomato mice were from the Jackson Laboratory. Animals were used under protocols approved by the Massachusetts Eye & Ear Infirmary IACUC committee. Mice were anesthetized by hypothermia on ice. Cochleostomies were performed by making an incision behind the ear to expose the cochlea. Glass micropipettes held by a micromanipulator were used to deliver the complex into the scala media, which allows access to inner ear hair cells. The total delivery volume for every injection was 0.4 μL per cochlea and the release was controlled by a micromanipulator at the speed of 69 nL/min.
5 days after injection, the mice were sacrificed and cochlea were harvested by standard protocols. See, e.g., Sage et al. Science 2005, 307, 1114. For immunohistochemistry, antibodies against hair-cell markers (Myo7a) and supporting cells (Sox2) were used following a previously described protocol. To quantify the number of tdTomato positive cells after aurein 1.2-+36-GFP-Cre and +36-GFP-Cre, we counted the total number of inner and outer hair cells in a region spanning 100 μm in the apex, middle, and base turn of the cochlea.

In data set [3] the test system is BSR.LNL.tdTomato cells. As to the kind of experiment: Primary screen for cytosolic delivery of Cre recombinase (tdTomato, fluorescence image analysis). The following applies: for level of recombination in primary screen: 250 nM peptide-(+36 GFP)-Cre conjugate. In kind it is cell-based, hamster. Here is the method:
FIG. 2. Primary screen for cytosolic delivery of Cre recombinase in BSR.LNL.tdTomato cells. Initial screen of 20 peptide-(+36 GFP)-Cre conjugated proteins. Cytosolic Cre delivery results in recombination and tdTomato expression. The percentage of tdTomato positive cells was determined by fluorescence image analysis. […] Cells were treated with 250 nM protein for 4 hours in serum-free DMEM. Cells were washed and supplanted with full DMEM and incubated for 48 hours. Error bars represent the standard deviation of three independent biological replicates.
The ability of each peptide-(+36 GFP)-Cre recombinase fusion when added to culture media to effect recombination was assayed in BSR.LNL.tdTomato cells, a hamster kidney cell line derived from BHK-21 (FIG. 8). Because Cre recombinase must enter the cell, escape endosomes, enter the nucleus, and catalyze recombination to generate tdTomato fluorescence, this assay reflects the availability of active, non-endosomal recombinase enzyme that reaches the nucleus. […] See, e.g., Dijkstra at al. Biochimica et Biophysica Acta (BBA)-Molecular Cell Research 1984, 804, 58.
The reporter BSR.LNL.tdTomato cells were incubated with 250 nM of each peptide-(+36 GFP)-Cre protein in serum-free media.
BSR.LNL.tdTomato cells were plated at 10,000 cells per well in black 384-well plates (Aurora Biotechnologies). Cells were treated with Cre fusion proteins diluted in serum-free DMEM 24 hours after plating and incubated for 4 hours at 37° C. Following incubation, the cells were washed three times with PBS+20 U/mL heparin. The cells were incubated a further 48 h in serum-containing media. Cells were fixed in 3% paraformaldehyde and stained with Hoescht 33342 nuclear dye. Images were acquired on an ImageXpress Micro automated microscope (Molecular Devices) using a 4× objective (binning 2, gain 2), with laser- and image-based focusing (offset −130 μm, range ±50 μm, step 25 μm). Images were exposed for 10 ms in the DAPI channel (Hoechst) and 500 ms in the dsRed channel (tdTomato). Image analysis was performed using the cell-scoring module of MetaXpress software (Molecular Devices). All nuclei were detected with a minimum width of 1 pixel, maximum width of 3 pixels, and an intensity of 200 gray levels above background. Positive cells were evaluated for uniform signal in the dsRed channel (minimum width of 5 pixels, maximum width of 30 pixels, intensity >200 gray levels above background, 10 μm minimum stained area). In total, nine images were captured and analyzed per well, and 16 wells were treated with the same fusion protein. The primary screen was completed in biological triplicate.

Data set [4] deals with BSR.LNL.tdTomato cells. Put plainly: ATP-dependent cell viability assay (CellTiterGlo) 48 h after treatment. In kind it is cell-based, hamster. The conditions noted are these: for viable cells: 1 μM treatment. On the procedure: FIGS. 3A-3B. Efficacy and toxicity of recombinant expression fusions of aurein 1.2 (“E”) and citropin 1.3 (“U”). (FIG. 3A) Cytosolic Cre delivery results in recombination and tdTomato expression. The percentage of tdTomato positive cells was determined by flow cytometry. Protein fusions were delivered at 125 nM, 250 nM, 500 nM, and 1 μM. (FIG. 3B) Toxicity of aurein 1.2 and citropin 1.3 as determined by CellTiterGlo (Promega) assay. Protein fusions were delivered at 125 nM, 250 nM, 500 nM, and 1 μM. […] Cells were treated with 250 nM protein for 4 hours in serum-free media. Cells were washed and supplanted with full DMEM and incubated for 48 hours. Error bars represent the standard deviation of three independent biological replicates.
Next, the toxicity of each fusion protein was evaluated at a range of concentrations (125 nM to 1 μM) using an ATP-dependent cell viability assay at 48 h after treatment. […] Applying 1 μM treatments decreased cell viability to 70% and 66%, respectively (FIG. 3B). In light of its activity and low cytotoxicity at 250 nM, the ability of aurein 1.2 to enhance cytosolic protein delivery was characterized in depth.
(§1) Uptake and delivery assays for Cre fusion proteins were performed as previously described. Briefly, proteins were diluted in serum-free DMEM and incubated on the cells in 48-well plates for 4 hours at 37° C. Following incubation, the cells were washed three times with PBS+20 U/mL heparin. The cells were incubated a further 48 hours in serum-containing media prior to trypsinization and analysis by flow cytometry. All flow cytometry were carried out on a BD Fortessa flow cytometer (Becton-Dickinson) using 530/30 nm and 610/20 nm filter sets. Toxicity for aurein 1.2 and citropin 1.3 validation assays was determined using CellTiterGlo assay (Promega) in 96-well plates following manufacturer protocol. Toxicity for alanine scan mutational analysis was determined with LIVE/DEAD fixable far-red dead cell stain (Life Technologies) with 635 nm laser and 670/30 nm filter.
In general terms: In ATP-based viability assays light output follows the ATP content of the culture.

Data set [5] concerns BSR.LNL.tdTomato cells. As to the kind of experiment: Cre delivery assay of expressed fusion proteins (tdTomato, flow cytometry). It counts as cell-based, hamster. The conditions noted are these: for overall recombination efficiency versus aurein 1.2: variant fused to +36 GFP-Cre, 250 nM. Here is the method:
FIGS. 3A-3B. Efficacy and toxicity of recombinant expression fusions of aurein 1.2 (“E”) and citropin 1.3 (“U”). […] The percentage of tdTomato positive cells was determined by flow cytometry. Protein fusions were delivered at 125 nM, 250 nM, 500 nM, and 1 μM. (FIG. 3B) Toxicity of aurein 1.2 and citropin 1.3 as determined by CellTiterGlo (Promega) assay. Protein fusions were delivered at 125 nM, 250 nM, 500 nM, and 1 μM. […] Cells were treated with 250 nM protein for 4 hours in serum-free media. Cells were washed and supplanted with full DMEM and incubated for 48 hours. Error bars represent the standard deviation of three independent biological replicates.
(§2) FIGS. 4A-4B. Activity and cytotoxicity of aurein 1.2 variants fused to +36 GFP-Cre. (FIG. 4A) The percentage of tdTomato positive cells was determined by flow cytometry. (FIG. 4B) Toxicity as determined by CellTiterGlo (Promega) assay. […] Cells were treated with 250 nM protein for 4 hours in serum-free DMEM. Cells were washed and supplanted with full DMEM and incubated for 48 hours.
Both aurein 1.2-+36 GFP-Cre and citropin 1.3-+36 GFP-Cre were cloned, expressed, and purified as fusion proteins.
To identify the residues involved in enhancing non-endosomal protein delivery, an alanine scan of the 13 amino acid positions of aurein 1.2 was performed by cloning, expressing, and purifying each alanine mutant of aurein 1.2-+36 GFP-Cre. The resulting fusion proteins were assayed in BSR.LNL.tdTomato reporter cells as described above (Table 2). […] In total, 19 mutants of aurein 1.2 were generated and tested using the Cre recombination assay.
as §1
(A flow cytometer gives signals particle by particle.)

Data set [6] has as its system BSR.LNL.tdTomato cells. Put plainly: Toxicity of aurein 1.2 variants fused to +36 GFP-Cre. It counts as cell-based, hamster. The conditions noted are these: variant fused to +36 GFP-Cre, 250 nM. On the procedure: as §2
To identify the residues involved in enhancing non-endosomal protein delivery, an alanine scan of the 13 amino acid positions of aurein 1.2 was performed by cloning, expressing, and purifying each alanine mutant of aurein 1.2-+36 GFP-Cre. The resulting fusion proteins were assayed in BSR.LNL.tdTomato reporter cells as described above (Table 2). Seven positions were moderately to highly intolerant of alanine substitution. Six positions retained >70% of the activity of unmutated aurein 1.2-+36 GFP-Cre (FIG. 4A). […]
Uptake and delivery assays for Cre fusion proteins were performed as previously described. […] Toxicity for aurein 1.2 and citropin 1.3 validation assays was determined using CellTiterGlo assay (Promega) in 96-well plates following manufacturer protocol. Toxicity for alanine scan mutational analysis was determined with LIVE/DEAD fixable far-red dead cell stain (Life Technologies) with 635 nm laser and 670/30 nm filter.

Where only a bound is given, the exact number is not on record here.

GLFDIIKKIAESF [aurein 1.2]: in the data set on BSR.LNL.tdTomato cells [1], the “effect on functional delivery of +36 GFP-Cre when added in trans” value is “did not affect”. For the same compound, the “potency of Cre delivery into cochlear hair cells when fused with aurein 1.2 versus absence of the peptide” value in data set [2] (live mice, inner ear) is above 20 fold. Moreover, the “level of recombination in primary screen” value in the data set with BSR.LNL.tdTomato cells [3] is “highest level of recombination”.
`CCN(CC)CCCC(C)Nc1ccnc2cc(Cl)ccc12` (centres unmarked) [chloroquine, reference compound]: the recombined cells with BSR.LNL.tdTomato cells [3] (250 nM +36 GFP-Cre incubated with 100 μM chloroquine (positive control)) is recorded as 48%.
For “+36 GFP-Cre: superpositively charged GFP fused to Cre recombinase, SEQ ID NO: 76; no-peptide control [reference compound]”, the viable cells in the data set on BSR.LNL.tdTomato cells [4] is on record as 85%. Besides, the “recombination in middle or base cochlear hair cells or cochlear supporting cells” value in data set [2] (0.4 μL of 50 μM, 5 days) is given as “not in the middle or base of the cochlear hair cells or any cochlear supporting cells”. In addition, the “Cre-mediated recombination, inner hair cells (IHC)” value in data set [2] (apex, 0.4 μL of 50 μM, 5 days) is on record as 4.4%. The “cells expressing tdTomato (recombined cells)” value in the data set on BSR.LNL.tdTomato cells [3] (250 nM protein, 4 h serum-free media, then 48 h, sortase-conjugated peptide or no peptide) was 4.5%.
Regarding GLFDIIKKVASVIGGL [citropin 1.3], the “level of recombination in primary screen” value in the data set on BSR.LNL.tdTomato cells [3] was “moderate level of recombination”.
As to “citropin 1.3-+36 GFP-Cre: fusion protein of citropin 1.3, +36 GFP and Cre recombinase, SEQ ID NO: 78”, the viability (as a rule, a read-out of living cells in per cent, often relative to untreated cells) in the data set on BSR.LNL.tdTomato cells [4] (250 nM recombinant fusion) is 84%. The viable cells in the data set with BSR.LNL.tdTomato cells [4] is given as 66%. Also, the “recombination signal above that of +36 GFP-Cre” value in the data set on BSR.LNL.tdTomato cells [5] (250 nM expressed fusion protein) is listed as “did not induce any enhanced Cre delivery”. The “recombination levels higher than that of +36 GFP-Cre alone” value in the data set with BSR.LNL.tdTomato cells [5] (1 μM expressed fusion protein) is on record as 3.0 fold.
For the compound “GLFDIIKKIAEAF [S12A, aurein 1.2 variant, expressed as recombinant fusion protein with +36 GFP-Cre]”, in the data set on BSR.LNL.tdTomato cells [6], the “toxicity versus aurein 1.2” value was “increased toxicity”. Besides, the “overall recombination efficiency versus aurein 1.2” value in the data set on BSR.LNL.tdTomato cells [5] is “potentially improved”.
On the same counts, the results for “GLFDIIKRIAESF [K8R, aurein 1.2 variant, expressed as recombinant fusion protein with +36 GFP-Cre]” are “increased toxicity” and “potentially improved”.

Values taken from US20180312542A1, “ENDOSOMAL ESCAPE PEPTIDES” (priority 2015, published 2018).
